Test results as given in the Bradley open melting point set (2014).
Several values for one entry are separate records, joined by “and”; a condition that tells them apart may be missing. Equal entries are not always repeated.

| SMILES | melting point |
| --- | --- |
| COC(=O)CCC(C)C1CCC2C3C(O)C(O)C4CCCCC4(C)C3CCC12C (configuration not stated) [methyl 6,7-dihydroxycholan-24-oate] | 105 °C |
| O=C(c1ccc(Cl)cc1)c1nn(-c2ccccc2)/c(=N\N=C\c2ccc(F)cc2)s1 | 151 °C |
| NC(=O)c1ccccc1O [o-hydroxybenzamide] | 142 °C |
| OC[C@@H](O)[C@@H](O)[C@@H](O)CO [adonitol] | 103 °C |
| CC[C@H](C)C(=O)O[C@H]1C[C@@H](C)C=C2C=C[C@H](C)[C@H](CC[C@@H]3C[C@@H](O)CC(=O)O3)[C@H]21 [lovastatin] | 175 °C |
| O=C(S)CCCC(=O)S [methylenebis(thioacetic acid)] | 128 °C |
| O=Cc1cc([N+](=O)[O-])cc([N+](=O)[O-])c1O [3,5-dinitrosalicylaldehyde] | 73 °C |
| Oc1cccc(O)c1 [resorcinol] | 111 °C |
| Cc1cc(C(C)(C)C)c(O)c(C(C)(C)C)c1 [2,6-di-tert-butyl-4-methylphenol] | 71 °C |
| N#Cc1cccc(C(=O)O)c1 [3-cyanobenzoic acid] | 222 °C |
| COC(=O)c1cc2ccccc2c(OC(=O)c2ccccc2C)c1C(=O)OC | 139 °C |
| O=C(O)/C=C/c1ccccc1O [trans-2-hydroxycinnamic acid] | 217 °C |
| OC1CCCC1 [cyclopentanol] | -17.5 °C and -16.2 °C |
| CC(C)Oc1ccc(Nc2ccccc2)cc1 [4-Isopropoxy-N-phenylaniline] | 79 °C |
| CCCC(=O)O [Butyric acid] | -5 °C |
| NC1=NCC(c2ccccc2)O1 (configuration not stated) [Aminorex] | 137 °C |
| O=C[C@@H](O)[C@H](O)[C@@H](O)[C@@H](O)CO [L-Glucose] | 150 °C |
| CNC(C)C(O)c1ccccc1 (configuration not stated) [2-(Methylamino)-1-phenylpropan-1-ol] | 36 °C |
| CCCCC(C)CC (configuration not stated) [3-methylheptane] | -121 °C |
| O=Cc1cccc2c1CCOC2=O [erythrocentaurin] | 140 °C |
| COc1ccc(C=C2C3=C(CCCC3)OC3=C2CCCC3)cc1 | 124 °C |
| COC(=O)c1ccc(C(C)=O)cc1 [methyl 4-acetylbenzoate] | 86 °C |
| C/C(C)=C(/C)C [2,3-dimethyl-2-butene] | -74 °C |
| NC(=O)c1ccc([N+](=O)[O-])cc1 [p-nitrobenzamide] | 201 °C |
| CN1C(=O)OC(C)(C)C1=O [3,5,5-trimethyloxazolidine-2,4-dione] | 47 °C |
| COc1ccccc1-c1ccccc1 [2-methoxybiphenyl] | 31 °C |

| SMILES | melting point |
| --- | --- |
| CN(C)C(=S)SSC(=S)N(C)C [tetramethylthiuram disulfide] | 150 °C |
| Cc1cc(N)ccc1Br [4-bromo-3-methylaniline] | 81 °C |
| C[C@@H]1CNC[C@H](C)O1 [cis-2,6-dimethylmorpholine] | -85 °C |
| O=[N+]([O-])c1ccc2c(c1)OCCOCCOCCOCCO2 [4-nitrobenzo-15-crown-5] | 94 °C |
| CC(=O)Nc1ccccc1 [acetanilide] | 115 °C |
| CC(C)Cc1ccc(C(C)C(=O)O)cc1 (stereo not drawn) [4-isobutyl-alpha-methylphenylacetic acid] | 77 °C |
| CCOC(=O)c1ccc(N=C=S)cc1 [4-(ethoxycarbonyl)phenyl isothiocyanate] | 54 °C |
| NC(=O)c1cnccn1 [Pyrazinamide] | 189 °C |
| O=C(O)c1cccc(OCc2ccccc2)c1 [3-benzyloxybenzoic acid] | 134 °C |
| Nc1c(Cl)cc([N+](=O)[O-])cc1[N+](=O)[O-] [6-chloro-2,4-dinitroaniline] | 157 °C |
| OB(O)c1ccc(Br)cc1 [4-bromobenzeneboronic acid] | 284 °C |
| BrCCBr [1,2-dibromoethane] | 10 °C |
| C/C=C/CCCCC [trans-2-octene] | -88 °C |
| BrCCCCOc1ccccc1 [(4-bromobutoxy)benzene] | 42 °C |
| CCN(CC)C(C)CN1c2ccccc2Sc2ccccc21 (configuration not stated) [ethopropazine] | 53 °C |
| COC(=O)c1cc(Br)ccc1NC(C)=O [methyl 2-acetamido-5-bromobenzoate] | 134 °C |
| C=C1C[C@@H]2[C@H](CC[C@]3(C)C(=O)CC[C@@H]23)[C@@]2(C)C=CC(=O)C=C12 [Exemestane] | 155 °C |
| C[SiH]1O[SiH](C)O[SiH](C)O[SiH](C)O1 (configuration not stated) [2,4,6,8-tetramethylcyclotetrasiloxane] | -69 °C |
| O=C1c2c(O)ccc([N+](=O)[O-])c2C(=O)c2c([N+](=O)[O-])ccc(O)c21 [1,8-Dihydroxy-4,5-dinitro-9,10-anthraquinone] | 225 °C |
| CC(=O)N1CCN(c2ccc(OCC3COC(Cn4ccnc4)(c4ccc(Cl)cc4Cl)O3)cc2)CC1 (configuration not stated) [ketoconazole] | 146 °C |
| CC1=CC(=O)c2ccccc2C1=O [Menadione] | 102 °C |
| CC(N)CCc1ccccc1 (configuration not stated) [3-amino-1-phenylbutane] | -50 °C |
| C/C=C/C1Nn2c(nnc2-c2cccnc2)S1 (configuration not stated) | 121 °C |
| COc1cc(C)c2c(c1)CC/C(=C\c1ccccc1)C2=O | 97 °C |
| Clc1ccc(Cl)c(-c2cc(Cl)c(Cl)cc2Cl)c1 [PCB-101] | 77 °C |
| OC/C(Br)=C(\Br)CO [trans-2,3-dibromo-2-butene-1,4-diol] | 113 °C |

| SMILES | melting point |
| --- | --- |
| O=[N+]([O-])c1ccccc1CCl [2-nitrobenzyl chloride] | 49 °C |
| N#CCc1ccc(CC#N)cc1 [p-Xylylene dicyanide] | 96 °C |
| CCC(C)(O)C#CC(C)(O)CC (configuration not stated) [3,6-dimethyl-4-octyn-3,6-diol] | 54 °C |
| Oc1cccc2[nH]nnc12 [4-hydroxy-1h-benzotriazole] | 222 °C |
| Cc1ccccc1C(=O)O [o-toluic acid] | 105 °C |
| CCCCCCSc1nc[nH]n1 [3-n-hexylthio-1,2,4-triazole] | 67 °C |
| CCOC(=O)/C=C/c1ccccc1N [Ethyl (2E)-3-(2-aminophenyl)acrylate] | 77 °C |
| O=C(O)c1c(Cl)cccc1Cl [2,6-dichlorobenzoic_acid] | 144 °C |
| c1ccc2c(-c3cccc4ccccc34)cccc2c1 [binaphthyl] | 154 °C |
| ClC(Br)Br [chlorodibromomethane] | -22 °C |
| COC(=O)c1cc(OC)c(OC)c(OC)c1 [methyl 3,4,5-trimethoxybenzoate] | 85 °C |
| Cn1nc(-c2ccccc2)cc1N [5-amino-1-methyl-3-phenyl-1h-pyrazole] | 127 °C |
| Nc1ccc(N)cc1 [Benzene-1,4-diamine] | 140 °C |
| Cc1cc(C)c(C)c(CCl)c1C [2,3,5,6-tetramethylbenzyl chloride] | 70 °C |
| Cc1ccc(Cc2ccc(C)cc2)cc1 [4,4'-dimethyldiphenylmethane] | 29 °C |
| COC1=C(OC)/C(=C/C2CCC=CC23OC(=O)C(OC)=C3OC)OC1=O (configuration not stated) | 119 °C |
| CC(=O)c1cccc([N+](=O)[O-])c1 [3'-nitroacetophenone] | 78 °C |
| O=S(=O)(Cl)c1cc(S(=O)(=O)c2ccccc2)cs1 [4-(phenylsulfonyl)thiophene-2-sulfonyl chloride] | 102 °C |
| CC(C)C=O [2-methylpropanal] | -65 °C |
| O=[N+]([O-])c1cccc(O)c1 [3-Nitrophenol] | 97 °C |
| N#Cc1ccccc1[N+](=O)[O-] [o-nitrobenzonitrile] | 109 °C |
| Cc1cccc(C#N)c1 [m-tolunitrile] | -23 °C |
| CC(Cc1ccccc1)NC(C#N)c1ccccc1 (configuration not stated) [amphetaminil] | 85 °C |
| Oc1ccc2ccccc2c1Br [1-bromo-2-naphthol] | 75 °C |
| O=C(O)CCCCCCCCC(=O)O [Sebacic acid] | 134 °C |
| Cc1ccc(C)c(OCCCC(C)(C)C(=O)O)c1 [gemfibrozil] | 61 °C |

| SMILES | melting point |
| --- | --- |
| COc1cccc(Cl)c1Cl [2,3-dichloroanisole] | 32 °C |
| CCc1ccccc1N [2-ethylaniline] | -44 °C |
| CCCCCO [Pentan-1-ol] | -78 °C |
| Nc1cccc(Cl)c1 [m-chloroaniline] | -10 °C |
| OCc1ccnc(Cl)c1 [2-chloropyridine-4-methanol] | 65 °C |
| Nc1c(Br)cc(Br)cc1[N+](=O)[O-] [2,4-dibromo-6-nitroaniline] | 130 °C |
| Nc1n[nH]c(-c2ccccc2)c1Br [3-amino-4-bromo-5-phenyl-1h-pyrazole] | 114 °C |
| CC(C)C=O [2-Methylpropanal] | -65 °C |
| O=C1/C(=N\Nc2cccc(F)c2)C(C(F)(F)F)=NN1c1ccccc1 | 106 °C |
| CC(C)(C)c1ccc(N)cc1 [4-tert-butylaniline] | 16 °C |
| C#CCCCCCCCCCCCCCC [1-hexadecyne] | 15 °C |
| c1ccc(C23CCN(CC2)CC3)cc1 [4-phenylquinuclidine] | 124 °C |
| CC(=O)OCCOC(C)=O [ethylene_glycol_diacetate] | -41 °C |
| C[C@@H](O)[C@H](NC(=O)OCc1ccccc1)C(=O)O [N-benzyloxycarbonyl-l-threonine] | 98 °C |
| COC(=O)c1cc(OC)c(OC)c(OC)c1 [methyl_3,4,5-trimethoxybenzoate] | 84 °C |
| CCOC(=O)C1(c2ccccc2)CCN(CCc2ccc(N)cc2)CC1 [anileridine] | 83 °C |
| Sc1nnc2ccccn12 [1,2,4-triazolo[4,3-a]pyridine-3-thiol] | 210 °C |
| OC(c1ccccc1)c1ccccc1 [benzhydrol] | 66 °C |
| C(=N\c1ccccc1)/c1ccccc1 [benzalaniline] | 51 °C and 49 °C and 46 °C |
| Clc1ccccc1I [1-chloro-2-iodobenzene] | 1 °C |
| O=C(O)[C@@H]1[C@@H]2CC[C@@H](C2)[C@@H]1C(=O)O [(1R,2R,3S,4S)-Bicyclo[2.2.1]heptane-2,3-dicarboxylic acid] | 160 °C |
| CP(C)CCP(C)C [1,2-bis(dimethylphosphino)ethane] | 180 °C |
| C=CC(=O)OCC [ethyl acrylate] | -71 °C |
| N#Cc1ccc2c(c1)N(CCCN1CCC(O)CC1)c1ccccc1S2 [perciyazine] | 116 °C |
